row,melting point,Structure (SMILES)
1,195 to 197 °C,Cc1cc(NS(=O)(=O)c2cccc(C(=O)O)c2)no1
2,146 to 148 °C,COc1cc(C#N)ccc1OCCCC(=O)O
3,146 to 148 °C,COc1cc(C)c(C(=O)O)cc1OC
4,154 to 156 °C,CCOc1ccccc1S(N)(=O)=O
5,111 to 113 °C,CNC(C(N)=O)c1cccc(Br)c1 (stereo not drawn)
6,210 to 212 °C,Cc1nc(O)nc(C)c1Br
7,44 to 46 °C,CNc1ncc(C(F)(F)F)cc1Cl
8,154 to 156 °C,COc1ccc(NC(=S)NN)cn1
9,90 to 95 °C,CC(=O)c1cc(CCC(=O)O)oc1C
10,205 to 207 °C,CN(C(=O)c1ccc(Cl)cc1)c1ccc(O)cc1
11,44 to 46 °C,CCOC(=O)C(NC(C)=O)C(C)=O (stereo not drawn)
12,364 to 366 °C,O=c1[nH]c(S)nc2ccsc12
13,68 to 70 °C,CCOc1ccc([N+](=O)[O-])cc1CCl
14,149 to 151 °C,O=S(=O)(c1ccc(Cl)nc1)N1CCCC1
15,63 to 65 °C,O=S(=O)(CCCl)c1cccc(Br)c1
16,136 to 138 °C,C=CCN(CC(=O)O)S(=O)(=O)c1ccc(Cl)cc1
17,165 to 177 °C,CC(=O)c1csc(N)n1
18,158 to 160 °C,O=C(O)c1cccc(-n2nccc2C(F)(F)F)c1
19,105 to 107 °C,CCOC(=O)c1c(N)sc2ccccc12
20,49 to 51 °C,C#CCOc1ccc(N)cc1
21,142 to 144 °C,O=C(CCl)NCc1ccc(C(=O)N2CCOCC2)cc1
22,225 to 227 °C,CSc1nccn1-c1cccc(C(=O)O)c1
23,205 to 207 °C,O=[N+]([O-])c1ccc(-c2cn[nH]c2)cc1
24,284 to 286 °C,COc1ccc(-c2n[nH]c(S)nc2=O)cc1

row,melting point,Structure (SMILES)
1,185 to 187 °C,COc1ccc(-c2nnc(N)s2)cc1
2,144 to 146 °C,COC(=O)Cn1cnc2cc(F)ccc2c1=O
3,58 to 60 °C,Cc1nn(-c2ccccc2)cc1C=O
4,167 to 169 °C,CC(N)c1ccccc1NS(=O)(=O)c1cccs1 (stereo not drawn)
5,183 to 185 °C,O=Cc1cn2cc(Cl)ccc2n1
6,116 to 118 °C,CCOC(=O)C(=O)c1nc2ccccc2n1C
7,115 to 117 °C,Cc1ccc(NC2C=CS(=O)(=O)C2)cc1 (stereo not drawn)
8,115 to 117 °C,CSCCC(NC(=O)c1cccc(C)c1)C(=O)O (stereo not drawn)
9,108 to 110 °C,Clc1noc(-c2ccsc2)n1
10,126 to 128 °C,Nc1nc(SCCO)n[nH]1
11,57 to 59 °C,O=[N+]([O-])c1cc(S(=O)(=O)C(F)(F)F)ccc1Cl
12,156 to 158 °C,O=C(O)c1ccc(Oc2ccc(F)c(F)c2)cc1
13,49 to 51 °C,CS(=O)(=O)NCc1ccccc1
14,59 to 61 °C,NC1CCCCC1Nc1cnccn1 (stereo not drawn)
15,115 to 117 °C,COc1cc(C=O)cc(OC)c1OC(C)=O
16,146 to 148 °C,O=C(O)[C@@H]1CCCN1C(=O)NCc1cccc(Br)c1
17,172 to 174 °C,CC(=O)NC(C(=O)O)C1CCCC1 (stereo not drawn)
18,209 to 211 °C,ON=Cc1c(Cl)nc2ccccn12
19,119 to 121 °C,CC(C)CCNC(=O)C1CCN(C(=O)CCl)CC1
20,191 to 193 °C,CC(C)Oc1ccc(-c2csc(N)n2)cc1
21,240 to 242 °C,O=C(O)c1ccc(NS(=O)(=O)c2ccc(F)cc2)cc1
22,153 to 155 °C,Cc1ccc(NC(=O)CCl)c(C)c1
23,255 to 257 °C,O=c1[nH]c(S)nc2c1cnn2-c1cccc(Cl)c1
24,145 to 147 °C,CC(C)(C)OC(=O)NC1CCN(Cc2cc(Cl)cc(Cl)c2)CC1

row,melting point,Structure (SMILES)
1,173 to 175 °C,Nc1ccc(CNC(=O)c2ccc(Br)cc2)cc1
2,136 to 138 °C,CCOC(=O)c1c(C)oc2ccc(O)cc12
3,151 to 153 °C,CC1CCC2C(=O)N(C)C(=O)C2C1C(=O)O (stereo not drawn)
4,83 to 85 °C,Cc1ccc(OCCCC(=O)O)cc1
5,80 to 82 °C,CC(N)(CO)C1CCCCC1 (stereo not drawn)
6,49 to 51 °C,CNc1cc(Cl)cc(CO)c1
7,49 to 51 °C,COc1ccccc1-c1ccc(C=O)cc1
8,173 to 175 °C,O=C(O)CC1=NN(c2ncc(C(F)(F)F)cc2Cl)C(=O)C1
9,114 to 116 °C,Cc1cc(O)nc(-c2ccccn2)n1
10,153 to 155 °C,Nc1cc(Br)ccc1N1CCOCC1
11,183 to 185 °C,CCc1ccc(-n2nc(C(=O)O)c3c2CCC3)cc1
12,127 to 129 °C,Sc1nnnn1C1CC1
13,83 to 85 °C,CCc1ccc(N)c(C(=O)OC)c1
14,96 to 98 °C,CC(CC(N)=NO)NC(=O)OC(C)(C)C (stereo not drawn)
15,67 to 69 °C,CCNc1ccc(Br)cn1
16,197 to 199 °C,O=C(CCl)Nc1cccc(C(=O)Nc2cccc(C(F)(F)F)c2)c1
17,175 to 177 °C,Cc1c(C)n(Cc2ccccc2)c2ncnc(N)c12
18,49 to 51 °C,N#Cc1cc(S(=O)(=O)Cl)ccc1Cl
19,215 to 217 °C,NS(=O)(=O)c1nc2ccccc2[nH]1
20,175 to 177 °C,COC(=O)c1ccncc1C(=O)O
21,80 to 82 °C,O=C(O)CC1CCc2ccccc2C1 (stereo not drawn)
22,163 to 165 °C,CCc1c[nH]c(S)n1
23,110 to 112 °C,CN(CC(=O)O)C(=O)c1ccc(Br)o1
24,239 to 241 °C,Cc1cn2c(=O)c(C(=O)O)cnc2s1

row,melting point,Structure (SMILES)
1,205 to 207 °C,COc1ccc(/C=C(/C(=O)O)c2cccs2)cc1
2,56 to 58 °C,Cc1ccc(N(CCC#N)C(=O)CCl)cc1
3,103 to 105 °C,Cc1ccc(NC(=O)OC(C)(C)C)s1
4,76 to 78 °C,COc1cccc(CNc2ccc(F)cc2)c1O
5,209 to 211 °C,Cc1ccc(C(=O)O)cc1S(C)(=O)=O
6,98 to 100 °C,CNCCCc1cc(-c2ccccc2)n[nH]1
7,116 to 118 °C,N#CC(N)c1ccc2ccccc2c1 (stereo not drawn)
8,137 to 139 °C,O=C(O)CCC(Cc1ccc(Cl)cc1)C(=O)O (stereo not drawn)
9,178 to 180 °C,NS(=O)(=O)c1ccc(CCCl)cc1
10,263 to 265 °C,O=C(O)/C=C/c1ccc(S(=O)(=O)NC2CC2)cc1
11,99 to 101 °C,OCc1ncc[nH]1
12,65 to 67 °C,COc1cc(S(=O)(=O)Cl)ccc1Br
13,302 to 304 °C,O=C(O)c1c[nH]nc1-c1ccc(F)cc1
14,166 to 168 °C,O=C(O)c1ccc(C2CCCOC2)cc1 (stereo not drawn)
15,179 to 181 °C,CC1(c2ccco2)NC(=O)NC1=O (stereo not drawn)
16,208 to 210 °C,CC(NC(=O)c1[nH]nc2ccccc12)C(=O)O (stereo not drawn)
17,129 to 131 °C,O=C(O)c1cc(Br)c(S(=O)(=O)Cl)s1
18,182 to 184 °C,c1ccc2sc(NCCCN3CCOCC3)nc2c1
19,189 to 191 °C,O=C1CCCc2c1[nH]c1ccc(Br)cc21
20,184 to 186 °C,O=C(O)c1c2c(nc3ccccc13)C(=Cc1ccc(Cl)c(Cl)c1)CC2
21,114 to 116 °C,NC(=O)NC1CC1
22,35 to 37 °C,O=S(=O)(Cl)c1cncc(F)c1
23,172 to 174 °C,O=C(O)Cc1cc(-c2ccccc2)on1
24,154 to 156 °C,CCc1[nH]n(C)c(=N)c1-c1ccc2c(c1)OCO2

row,melting point,Structure (SMILES)
1,162 to 164 °C,Cc1nn(-c2ccccc2)c(C)c1C(O)C(F)(F)F (stereo not drawn)
2,118 to 120 °C,COC(=O)C(C)Sc1ccccc1C(=O)O (stereo not drawn)
3,167 to 169 °C,Cc1ccc(S(=O)(=O)NC(C(=O)O)C(C)C)cc1 (stereo not drawn)
4,144 to 146 °C,CC(C)(C)c1ccc(N)c(C(=O)O)c1
5,73 to 75 °C,O=C1C=CC(=O)N1c1cc([N+](=O)[O-])ccc1Cl
6,150 to 152 °C,Cc1[nH]nc(C(=O)O)c1S(=O)(=O)Cl
7,97 to 99 °C,CCOc1cccc(CNC(=O)CCl)c1
8,110 to 112 °C,Nc1ccccc1NC(=O)c1cccs1
9,130 to 132 °C,CC1Nc2ccccc2NC1=O (stereo not drawn)
10,54 to 56 °C,O=C1C(Br)CCCN1c1ccccc1F (stereo not drawn)
11,72 to 74 °C,O=C(NCCCl)C1CCCC1
12,289 to 291 °C,Nc1nc2ccccc2n2nnnc12
13,140 to 142 °C,CCOc1c(Br)cc(C(=O)O)cc1OC
14,123 to 125 °C,Cc1cccc(OC(C)C(=O)O)c1C (stereo not drawn)
15,153 to 155 °C,O=C(O)CNC(=O)NCc1cccc([N+](=O)[O-])c1
16,67 to 69 °C,Cc1c(N2CCOC2=O)cccc1[N+](=O)[O-]
17,34 to 36 °C,COc1cc(C=O)cc(Cl)c1OC(C)C
18,188 to 190 °C,O=C(O)c1cc(N2CCCC2=O)cc(C(F)(F)F)c1
19,172 to 174 °C,Cc1cc(=O)[nH]c(-c2ncccn2)n1
20,296 to 300 °C,NC1=C(c2nc3ccccc3[nH]2)C(=O)CN1N
21,199 to 201 °C,CNS(=O)(=O)c1ccc(Sc2ccccc2C(=O)O)cc1
22,266 to 268 °C,O=C1Nc2cc(F)c(Br)cc2C1=O
23,75 to 77 °C,COc1cc(S(=O)(=O)Cl)ccc1[N+](=O)[O-]
24,271 to 273 °C,Nc1nnc(-c2ccc3c(c2)OCO3)o1

row,melting point,Structure (SMILES)
1,159 to 161 °C,NNC(=S)Nc1ccccc1F
2,142 to 144 °C,O=C(O)COc1ccc(F)cc1Br
3,301 to 303 °C,c1nc(N2CCOCC2)c2nc[nH]c2n1
4,99 to 101 °C,OCc1nnc(Cc2ccccc2Br)[nH]1
5,194 to 196 °C,O=C(O)c1cc([N+](=O)[O-])ccc1N1CCCCC1
6,171 to 173 °C,CCOc1cc(C(=O)O)ccn1
7,164 to 166 °C,CC(=O)Nc1ccc(Oc2nc3ccccc3o2)cc1
8,178 to 180 °C,NC(=S)CN1CCOCC1
9,45 to 47 °C,Cc1ccc(N)c(Cl)c1Cl
10,176 to 178 °C,CSc1ccc([N+](=O)[O-])c(C(=O)O)c1
11,289 to 291 °C,Cc1oc2[nH]c(=O)n(-c3ccccc3)c(=O)c2c1C(=O)O
12,178 to 180 °C,O=C(Nc1cccc(Br)c1)C1CCNCC1
13,264 to 266 °C,O=c1[nH]cnc2cc(F)c(F)cc12
14,208 to 210 °C,Cc1oc(-n2cccc2)c(C#N)c1C(=O)O
15,62 to 64 °C,C=Cc1nc(-c2ccc(Cl)cc2)no1
16,118 to 120 °C,Cc1cc(N)n(-c2ccc(OC(F)(F)F)cc2)n1
17,158 to 160 °C,Nc1ccc(Oc2ccnc3ccccc23)c(F)c1
18,256 to 258 °C,Cn1cnnc1-c1ccc(N)cc1
19,115 to 117 °C,O=C(O)CSc1nc(-c2ccccc2)no1

row,Structure (SMILES),melting point
1,O=C1CC(C2CCCCN2)CN1 (stereo not drawn),62 to 64 °C
2,CN(CCS(=O)(=O)F)S(=O)(=O)c1ccc(F)cc1,129 to 131 °C
3,N#CCCn1cc(C(=O)CCl)c2ccccc21,138 to 140 °C
4,CC(C)OC(=O)NNC(=O)CCl,100 to 102 °C

# Source: a melting point compilation (Tetko et al.)
